# Patent US8349793B2, “Method for treatment of inflammatory disease and disorder” (Heal0r, Ltd., priority 2010, dated 2013)
# Where no end group is shown, it is not given here.
# What was measured:
# splenocytes = assay: Cytokine secretion in splenocytes stimulated with LPS or TNFα (ELISA); assay type: cell-based, B6 mice; settings: TNFα 25 ng/ml, 48 hr
# Source text: Inhibitory effect on activated splenocytes: Splenocytes were derived from B6 mice. […] Medium containing secreted cytokines was collected after 48 hr and analyzed using ELISA.
# keratinocytes [1] = assay: Keratinocyte differentiation markers (Filaggrin, Loricrin, Keratin 1); assay type: cell-based, C57BL/6J mice; settings: concentration: EPIP1 and DAP1 1 μg/ml, 10 μg/ml, EPIP2 10 μg/ml
# Description: Keratinocytes derived from C57BL/6J mice were incubated in medium containing Ca^2+ to induce keratinocytes differentiation. Cells were then incubated in the presence of […] (1 μg/ml). Cells were harvested, run on SDS PAGE gel and immunoblotted using anti-Filaggrin (Fil), anti Loricrin (Lor) and anti-Keratin 1 (K1) antibody.
# (§1) FIGS. 7 and 8 presents a summary of expression data in keratinocytes utilizing various peptide PKCα inhibitors: MPDY-1 (SEQ ID NO: 21) as well as data for the peptide PKCα inhibitors AIP-1 (SEQ ID NO: 3), AIP-2 (SEQ ID NO: 20), AWOT-1 (SEQ ID NO: 5) and PPDY-1 (SEQ ID NO: 22). […] FIG. 8 presents a summary of expression data in keratinocytes for various peptide PKCα inhibitors.
# keratinocytes [2] = assay: Keratinocyte migration; assay type: cell-based; design: concentration or dose not given beside the values
# keratinocytes [3] = assay: Keratinocyte proliferation in vitro (PCNA); assay type: cell-based, Balb/c mice
# Description: Primary murine keratinocytes from 2 days old Balb/c mice were grown for 5 days to reach full confluence in 0.05 mM Ca^2+ MEM medium. HO/02/10 treatment (10^−6M and 10^−5M) was applied 6 hours prior to induction of differentiation. Cells were harvested, run on SDS PAGE gel and immunoblotted using anti-PCNA antibodies. In addition, C57Black mice, 8-10 weeks of age were subjected to full thickness wounding in the upper back area to induce epidermis remodeling and differentiation. Following the wounding, mice were treated daily with HO/02/10 (ranged 40-4000 mg/kg/day) for 7 days. At the termination point, mice were euthanized and upper back skin samples were fixed in 4% paraformaldehyde solution, following paraffin embedding and slide preparation. Skin samples were then subjected to immunohistochemical staining utilizing PCNA antibody. (n=18).
# as §1
# keratinocytes [4] = assay: Cytokine secretion in keratinocytes stimulated by LPS, TNFα or IL-17 (ELISA); assay type: cell-based, BALB/C mice
# Description: To determine their effects, keratinocytes were derived from newborn BALB/C mice skin. The cells were incubated for 5 days in 24 wells plate. Cells were then incubated with PBS−/− as control or stimulated by LPS, TNFα, or IL-17. PKCα inhibitors were added as indicated. Medium containing secreted cytokines was collected after 48 hr and analyzed using ELISA. FIG. 40 is a tabular summary of cytokine secretion.
# PKCδactivators were also shown to have an anti-inflammatory effect on keratinocytes and splenocytes. Keratinocytes were derived from newborn BALB/C mice skin. The cells were incubated for 5 days in 24 wells plate. Cells were then incubated with PBS−/− as control or stimulated by LPS or TNFα. The PKCδ inhibitor DAP-1 (SEQ ID NO: 16) was added. Medium containing secreted cytokines was collected after 48 hr and analyzed using ELISA. FIG. 35 is a tabular summary showing cytokine secretion in splenocytes stimulated with LPS. […] Cytokine secretion in keratinocytes stimulated by TNFα: following stimulation with 35 ng/ml TNFα. And treatment with 10 μg/ml of DAP-1, the cytokine levels of IL-1α, G-CSF, MIP-2 and KC were reduced by 95%, 70%, 20% and 30# respectively.
# PKCε inhibitors were also shown to have an anti-inflammatory effect on keratinocytes. Keratinocytes were derived from newborn BALB/C mice skin. The cells were incubated for 5 days in 24 wells plate. Cells were then incubated with PBS−/− as control or stimulated by LPS or TNFα. The PKCεinhibitors EPIP-1 (SEQ ID NO: 20), EPIP-2 (SEQ ID NO: 21), or EPIP-4 (SEQ ID NO: 23) were added. Medium containing secreted cytokines was collected after 48 hr and analyzed using ELISA. FIGS. 36-39 show the results for secretion of specific cytokines while Table 8 summarizes cytokine secretion for the various PKCε inhibitors: […]
# [5] = LPS 1 [μg/ml], peptide [10 μg/ml], 48 hr
# [6] = LPS 1 [μg/ml], peptide [1 g/ml], 48 hr
# [7] = TNF [35 ng/ml], peptide [10 μg/ml], 48 hr
# [8] = TNF [35 ng/ml], peptide [1 g/ml], 48 hr
# [9] = keratinocytes, LPS (1 μg/ml) (EPIP4: printed 1 mg/ml), peptide concentration not given
# [10] = keratinocytes, TNFa stim (35 ng/ml), 1 μg/ml of peptide (given for EPIP1, EPIP2, not for EPIP4), reduction printed with or without minus sign
sequence,measurement,setting,value
PYIALNVD [EPIP-2],IL-4 (% reduction in secretion),splenocytes; peptide 1 μg/ml,15%
same,IL-17 (% reduction in secretion),splenocytes; peptide 1 μg/ml,80%
same,IP-10 (% reduction in secretion),splenocytes; peptide 1 μg/ml,20%
same,G-CSF (% reduction in secretion),splenocytes; peptide 10 μg/ml,30%
same,IL-6 (% reduction in secretion),splenocytes; peptide 10 μg/ml,25%
same,IL-10 (% reduction in secretion),splenocytes; peptide 10 μg/ml,30%
same,IL-17 (% reduction in secretion),splenocytes; peptide 10 μg/ml,85%
same,IP-10 (% reduction in secretion),splenocytes; peptide 10 μg/ml,10%
same,Differentiation markers: granular differentiation,keratinocytes [1],Reduces granular
same,Differentiation markers: spainous differentiation,keratinocytes [1],Slightly induces
same,"Migration, Induces",keratinocytes [2],(200%)
same,Proliferation markers,keratinocytes [3]; 1 μg/ml,Induces
same,Proliferation markers,keratinocytes [3]; 10 μg/ml,Reduce
same,G-CSF secretion (change),keratinocytes [4]; [5],−75%
same,IL-6 secretion (change),keratinocytes [4]; [5],−55%
same,IP-10 secretion (change),keratinocytes [4]; [5],−40%
same,KC secretion (change),keratinocytes [4]; [5],−90%
same,G-CSF secretion (change),keratinocytes [4]; [6],−50%
same,IL-6 secretion (change),keratinocytes [4]; [6],−40%
same,IP-10 secretion (change),keratinocytes [4]; [6],−50%
same,KC secretion (change),keratinocytes [4]; [6],−90%
same,G-CSF secretion (change),keratinocytes [4]; [7],−100%
same,IL-6 secretion (change),keratinocytes [4]; [7],−95%
same,IP-10 secretion (change),keratinocytes [4]; [7],(−40%)
same,G-CSF secretion (change),keratinocytes [4]; [8],−100%
same,IL-6 secretion (change),keratinocytes [4]; [8],−95%
same,IP-10 secretion (change),keratinocytes [4]; [8],(−65%)
same,G-CSF secretion (change),keratinocytes [4]; [9],−50%
same,IL-6 secretion (change),keratinocytes [4]; [9],−40%
same,IP-10 secretion (change),keratinocytes [4]; [9],−50%
same,KC secretion (change),keratinocytes [4]; [9],−90%
same,Reduces Chemokines IP 10,keratinocytes [4]; [10],Chemokines IP 10 (65%)
same,Reduces proinflammatory cytokines IL-6,keratinocytes [4]; [10],"(95%), systemic cytokines G-SCF"
